From PubChem BioAssay AID248 (DTP/NCI, 2004)
Values joined by “and” are separate entries in the source; they are usually repeats but may differ in a detail not shown here. Equal values may be shown once. Toxic doses and inconclusive results are not listed.

System: L1210 leukemia ip in BDF1 mice, survival T/C
Experiment: NCI In Vivo Anticancer Drug Screen. Data for tumor model L1210 Leukemia (intraperitoneal) in B6D2F1 (BDF1) mice
Details: endpoint: mean survival time, higher = longer survival
How it was run: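 Each compound was tested against a transplantable tumor grown in mice. The endpoint was survival, with treated animals benchmarked against vehicle controls as a simple ratio.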

[1] = dose: 100.0 mg/kg/injection, schedule: Q01DX001 (ip), vehicle: carboxymethylcellulose (CMC)
[2] = dose: 200.0 mg/kg/injection, schedule: Q01DX001 (ip), vehicle: carboxymethylcellulose (CMC)
[3] = dose: 400.0 mg/kg/injection, schedule: Q01DX001 (ip), vehicle: carboxymethylcellulose (CMC)
[4] = dose: 100.0 mg/kg/injection, schedule: Q01DX009 (ip), vehicle: Klucel (hydroxypropylcellulose) (HPC)
[5] = dose: 100.0 mg/kg/injection, schedule: Q04DX003 (ip), vehicle: Klucel (hydroxypropylcellulose) (HPC)
[6] = dose: 200.0 mg/kg/injection, schedule: Q01DX009 (ip), vehicle: Klucel (hydroxypropylcellulose) (HPC)
[7] = dose: 200.0 mg/kg/injection, schedule: Q04DX003 (ip), vehicle: Klucel (hydroxypropylcellulose) (HPC)
[8] = dose: 400.0 mg/kg/injection, schedule: Q01DX009 (ip), vehicle: Klucel (hydroxypropylcellulose) (HPC)
[9] = dose: 400.0 mg/kg/injection, schedule: Q04DX003 (ip), vehicle: Klucel (hydroxypropylcellulose) (HPC)

## CCCCCCCCCCCCCCCCCC1=Nc2cc(C)c(C)cc2NC(=O)C1
[1]
  T/C: 93 % of control
[2]
  T/C: 88 % of control
[3]
  T/C: 86 % of control

## O=C(O)C1Cc2nc[nH]c2CN1CO (configuration not stated)
dose: 12.5 mg/kg/injection, schedule: Q01DX009 (ip), vehicle: saline with Tween-80
  T/C: 122 % of control
dose: 25.0 mg/kg/injection, schedule: Q01DX009 (ip), vehicle: saline with Tween-80
  T/C: 113 % of control
dose: 100.0 mg/kg/injection, schedule: Q01DX009 (ip), vehicle: saline with Tween-80
  T/C: 263 % of control

## COC(=O)c1ccc(C(=O)OC)c(=O)[nH]1
[4]
  T/C: 109 % of control
[5]
  T/C: 103 % of control
[6]
  T/C: 101 % of control
[7]
  T/C: 102 % of control
[8]
  T/C: 102 % of control
[9]
  T/C: 97 % of control

## N#CC12CC=CCC1CCC2=N (configuration not stated)
dose: 12.5 mg/kg/injection, schedule: Q01DX009 (ip), vehicle: Klucel (hydroxypropylcellulose) (HPC)
  T/C: 96 % of control
dose: 25.0 mg/kg/injection, schedule: Q01DX009 (ip), vehicle: Klucel (hydroxypropylcellulose) (HPC)
  T/C: 89 % of control

## COc1ccc(/C=C(/C(=O)c2ccc(OCCN3CCCC3)cc2)c2ccccc2)cc1OC
dose: 100.0 mg/kg/injection, schedule: Q04DX003 (sc), vehicle: olive oil, sesame oil, peanut oil
  T/C: 101 % of control
dose: 200.0 mg/kg/injection, schedule: Q04DX003 (sc), vehicle: olive oil, sesame oil, peanut oil
  T/C: 98 % of control
dose: 400.0 mg/kg/injection, schedule: Q04DX003 (sc), vehicle: olive oil, sesame oil, peanut oil
  T/C: 97 % of control

## CC(=O)c1cc(O)c2ccccc2c1O
dose: 100.0 mg/kg/injection, schedule: Q01DX001 (ip), vehicle: water
  T/C: 98 % of control
dose: 200.0 mg/kg/injection, schedule: Q01DX001 (ip), vehicle: water
  T/C: 89 % of control

## Cc1ccc(C)c(NC(=O)Nc2ccc(S(N)(=O)=O)cc2)c1
[4]
  T/C: 91 % of control
[6]
  T/C: 92 % of control
[8]
  T/C: 96 % of control

## c1cnc2c(c1)CCCC2
dose: 50.0 mg/kg/injection, schedule: Q01DX009 (ip), vehicle: saline with Tween-80
  T/C: 86 % of control
dose: 200.0 mg/kg/injection, schedule: Q01DX009 (ip), vehicle: saline with Tween-80
  T/C: 86 % of control

## NCCSCCc1ccccc1
dose: 25.0 mg/kg/injection, schedule: Q04DX002 (ip), vehicle: saline with Tween-80
  T/C: 100 % of control
dose: 50.0 mg/kg/injection, schedule: Q04DX002 (ip), vehicle: saline with Tween-80
  T/C: 103 % of control

## O=C1c2ccccc2-c2nc3ncccc3nc21
[5]
  T/C: 101 % of control
[7]
  T/C: 98 % of control
[9]
  T/C: 98 % of control

## CN1CCN(C(=O)C2CCCCC2C(=O)O)CC1 (configuration not stated)
dose: 100.0 mg/kg/injection, schedule: Q04DX002 (ip), vehicle: saline
  T/C: 107 % of control
dose: 200.0 mg/kg/injection, schedule: Q04DX002 (ip), vehicle: saline
  T/C: 107 % of control
dose: 400.0 mg/kg/injection, schedule: Q04DX002 (ip), vehicle: saline
  T/C: 96 % of control

## O=c1oc2c(Cl)cc(Cl)cc2cc1-c1nc2ccccc2[nH]1
dose: 100.0 mg/kg/injection, schedule: Q04DX002 (ip), vehicle: saline with Tween-80
  T/C: 100 % of control
dose: 200.0 mg/kg/injection, schedule: Q04DX002 (ip), vehicle: saline with Tween-80
  T/C: 93 % of control
dose: 400.0 mg/kg/injection, schedule: Q04DX002 (ip), vehicle: saline with Tween-80
  T/C: 96 % of control

## O=C(O)c1ccccc1-c1c2ccc(=O)c(Br)c-2oc2c(Br)c(O)ccc12
dose: 50.0 mg/kg/injection, schedule: Q01DX001 (ip), vehicle: saline
  T/C: 104 % of control
dose: 100.0 mg/kg/injection, schedule: Q01DX001 (ip), vehicle: saline
  T/C: 96 % of control
dose: 200.0 mg/kg/injection, schedule: Q01DX001 (ip), vehicle: saline
  T/C: 98 % of control
dose: 400.0 mg/kg/injection, schedule: Q01DX001 (ip), vehicle: saline
  T/C: 102 % of control

## Cc1c2cnccc2c(C)c2c1c1ccccc1n2CCCC#N
[5]
  T/C: 105 % of control
[7]
  T/C: 102 % of control
[9]
  T/C: 109 % of control

## CCOC(=O)c1cc(Cl)c(O)c(Cl)c1
dose: 25.0 mg/kg/injection, schedule: Q01DX009 (ip), vehicle: gum acacia
  T/C: 100 % of control
dose: 50.0 mg/kg/injection, schedule: Q01DX009 (ip), vehicle: gum acacia
  T/C: 98 % of control
dose: 100.0 mg/kg/injection, schedule: Q01DX009 (ip), vehicle: gum acacia
  T/C: 98 % of control and 100 % of control
[5]
  T/C: 93 % of control
[7]
  T/C: 103 % of control
[9]
  T/C: 95 % of control

## CCOc1ccccc1/C=N\NC(=S)Nc1ccc2cn[nH]c2c1
dose: 50.0 mg/kg/injection, schedule: Q01DX001 (ip), vehicle: carboxymethylcellulose (CMC)
  T/C: 96 % of control
[1]
  T/C: 100 % of control
[2]
  T/C: 102 % of control
[3]
  T/C: 94 % of control
